# Experiments:
# [1] = test system: rat's paw; assay: carrageenin-induced oedema of rat's paw; format: in vivo; conditions: 50 mg/kg i.p.
# Text: This method is an adequate model of asthma bronchiale forms in experimental animals with involvement of IgE-dependent and IgG-dependent allergic reactions /R. Andersson, Brit. J. Pharmacol. 77, 301 (1982)/. The conclusion was, therefore, drawn that the comounds of general Formula I, according to this invention, should, as well, have clearly pronounced antiphlogistic properties. That conclusion was positively verified in vivo by an appropriate inflammatory model in the context of an animal experiment, using carragheenin--induced oedema of rat's paw. The experimental model was handled according to a method proposed by Winter and co-workers /C. A. Winter, E. A. Risley, and G. W. Nuss, Proc. Soc. Exp. Biol. Med. 111, 544 (1962)/ (cf. Example 19).
# Inhibition of carrageenin-induced oedema of rat's paw:
# Testing is conducted by methods common in international practice /C.A. Winter, E. A. Risley and G. W. Nuss, Proc. Soc. Exp. Biol. Med. 111, 544 (1962)/. Ten rats received intraperitoneal injections of 50 mg/kg body weight of 5-methyl-2-hydroxy-laurophenone-oxime in parallel with 0.1 ml of 0.1-per-cent carrageenin solution (per animal). The development of paw oedema was measured in one-hour intervals, following application, and compared with manifestations in a control group.
# [2] = target: T1, lipoxygenase from rabbit reticulocytes (Oryctolagus cuniculus, UniProt P12530); assay: inhibition of activity of lipoxygenase from rabbit reticulocytes; format: biochemical
# T1 construct: Lipoxygenase from rabbit reticulocytes was obtained in electrophoretically and immunologically pure form; from tissue; host or cells: rabbit reticulocytes
# T1 sequence (P12530 1-663): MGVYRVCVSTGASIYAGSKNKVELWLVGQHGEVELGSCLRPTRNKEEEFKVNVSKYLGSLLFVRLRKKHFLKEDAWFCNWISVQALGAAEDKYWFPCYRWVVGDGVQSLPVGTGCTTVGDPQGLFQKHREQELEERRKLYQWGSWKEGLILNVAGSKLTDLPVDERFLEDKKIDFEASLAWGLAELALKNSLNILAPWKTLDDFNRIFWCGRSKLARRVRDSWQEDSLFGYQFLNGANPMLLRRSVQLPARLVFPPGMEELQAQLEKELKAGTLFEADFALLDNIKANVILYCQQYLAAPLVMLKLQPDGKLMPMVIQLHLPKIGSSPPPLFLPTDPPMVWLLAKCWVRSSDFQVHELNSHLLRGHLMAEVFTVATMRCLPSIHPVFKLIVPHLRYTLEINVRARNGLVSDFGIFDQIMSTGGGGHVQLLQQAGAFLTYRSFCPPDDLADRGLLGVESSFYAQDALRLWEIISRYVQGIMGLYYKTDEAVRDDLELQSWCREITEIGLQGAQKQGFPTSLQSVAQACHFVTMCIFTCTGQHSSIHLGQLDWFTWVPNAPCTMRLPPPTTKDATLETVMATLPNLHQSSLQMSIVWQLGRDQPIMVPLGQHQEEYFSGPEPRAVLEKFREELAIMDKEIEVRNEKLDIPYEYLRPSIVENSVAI
# Procedure: Persuasive evidence to inhibition of lipoxygenase was produced by a suitable animal lipoxygenase which had been isolated from rabbit reticulocytes, using a method by Rapoport and coworkers /S. M. Rapoport et al., Eur. J. Biochem. 96, 545 (1979)/. A final concentration of 1 mM of most of the compounds, according to this invention, produced inhibition of 90 percent or more (cf. Example 20). Significant inhibition was even recordable from a final concentration of 0.1 mM of some of the compounds, according to this invention. Substance concentrations were varied to determine the titration curves of inhibition and from these the half-inhibition concentrations (I50 -values). A half-inhibition concentration of 7 μM was established for 5-methyl-2-hydroxy-laurophenone-oxime, an oxime of high anti-asthmatic effectiveness.
# Inhibition of activity of lipoxygenase from rabbit reticulocytes:
# Lipoxygenase from rabbit reticulocytes was obtained in electrophoretically and immunologically pure form by means of the method described in the literature /S. M. Rapoport et al., Eur. J. Biochem. 96, 545 (1979)/. Lipoxygenase activity was determined at 25° C. by amperometric measurement of oxygen consumption by means of a Clark electrode in the following system: 0.1M potassium phosphate, pH 7.4, with 0.2-per-cent sodium cholate and 0.53 mM linoleic acid. The enzyme concentration was […] in the sample for measurement. The substances submitted for testing were dissolved in methyl glycol (fresh distillation in vacuum) and pre-incubated ten minutes with the enzyme at measurement temperature and in the absence of sodium cholate and linoleic acid. […] No remarkable inhibition occurred to control samples under these conditions. Enzyme reaction was started by addition of sodium cholate and linoleic acid. The titration curve of inhibition and, consequently, the concentrations required for inhibition by the order of 50 per cent were determined by variation of active substance concentrations. For comparison, the compounds were tested also on commercial lipoxygenase-1 from soybean.
# [3] = test system: lung strip isolated from guinea pig; assay: arachidonic acid-induced contraction of lung strip isolated from guinea pig; conditions: Cavia porcellus; 10 μM compound; 0.1 μM to 100 μM arachidonic acid; read-out: reduction in contractile response to arachidonic acid
# Text: Action of 5-methyl-2-hydroxy-laurophenone-oxime on arachidonic acid-inducedcontraction of lung strip isolated from guinea pig:
# The experimental arrangement for this test system was analogous to that described in Example 15, through lung strip isolated from guinea pig was the subject of testing. Contraction, in this test, was induced by rising concentrations of arachidonic acid (concentrated solution in ethanol, kept in N2 atmosphere) and cumulatively measured.
compound,measurement,setting,value
CCCCCCCCCCCC(=NO)c1cc(C)ccc1O [5-methyl-2-hydroxy-laurophenone-oxime],Inhibition of carrageenin-induced oedema,"[1]; 0.5 hr, + significant, P < 0.05",43%
same,Inhibition of carrageenin-induced oedema,"[1]; 1 hr, + significant, P < 0.05",47%
same,Inhibition of carrageenin-induced oedema,"[1]; 2 hr, + significant, P < 0.05",34%
same,Inhibition of carrageenin-induced oedema,"[1]; 3 hr, + significant, P < 0.05",34%
same,Inhibition of carrageenin-induced oedema,"[1]; 4 hr, not marked significant",31%
same,Inhibition of carrageenin-induced oedema,"[1]; 5 hr, not marked significant",29%
same,IC50,"[2]; limited by solubility, real I50 said to be very much lower, read-out: half-inhibition concentration (I50)",7 µM
same,inhibition at 1000 µM,"[2]; ultimate concentration 1.0 mM, read-out: Inhibition (percent) of lipoxygenase from reticulocytes",100%
same,inhibition at 10 µM,[3],70%

# Reference: patent US4816487A, “1-(2-hydroxyaryl)-alkane-1-on-oximes-procedure of preparation and use in pharmaceuticals” (Humboldt-Universitaet zu Berlin, priority 1985, dated 1989)
